Laboratory results: patent publication US10561733B2, “Process for producing nanoparticles laden with active ingredient” (Merck Patent GmbH, priority 2012, dated 2020)

Experiment: Visual solubility in organic solvent on successive addition of water
Assay type: physicochemical
Conditions: 1 mg/100 μl in THF, ACN, acetone, DMSO, DMF, methanol, ethanol; 10 μl water added successively until precipitation
Experimental: If the active compound is insoluble in an organic solvent, this solvent is less suitable for the production of nanoparticles. If a clear solution is formed, in each case equal defined amounts of aqueous solvent are added stepwise and mixed in each case until precipitation of the active compound is visible after addition and mixing (visual solubility). The assessment of visual solubility is carried out visually in a suitable container, preferably in a glass tube having a small diameter, for example as are customary in gas chromatography (diameter of 0.5 cm, height 3 cm), under cold light, which preferably radiates upward, against a dark surface, preferably against a black surface, as background. A diagrammatic representation of the procedure is depicted in FIG. 1.
For loading experiments, the active compounds dexamethasone and 5-[2-(2-fluorophenyl)-1,8-naphthyridin-4-yl]-2,6-naphthyridin-1-ylamine (also called active compound B below) were used. For solvent selection, the active compounds were each dissolved in the following solvents with a concentration of 1 mg/100 μl: tetrahydrofuran (THF), acetonitrile (ACN), acetone, dimethyl sulfoxide (DMSO), dimethylformamide (DMF), methanol, ethanol. Additionally, 0.1% of trifluoroacetic acid (v/v) were added to each organic solution of active compound B in order to establish an apparent “pH”. […]

In the case of C[C@@H]1C[C@H]2[C@@H]3CCC4=CC(=O)C=C[C@]4(C)[C@@]3(F)[C@@H](O)C[C@]2(C)[C@@]1(O)C(=O)CO [dexamethasone], the visual solubility is reported as “increased visual solubility in tetrahydrofuran”.
